Earlier results in US20160346171A1, “ORAL COMPOSITION AND CONFECTION” (TEIKYO UNIVERSITY, priority 2015, published 2016).
Like-named read-outs stand apart in the source and are kept apart here.

Legend:
Candida [1] = conditions: mouse
Candida [2] = conditions: for concentration inhibiting in vitro Candida mycelial growth by 95%: each independently, JP 2013-40156 A

SMILES | tongue symptoms (Candida [1]; 19.5 mg/mL solution, three times (50 μL at a time) into the oral cavity, Taguchi Y. et al. 2011) | concentration inhibiting in vitro Candida mycelial growth by 95% (Candida [2]) | concentration inhibiting in vitro Candida mycelial growth by 50% (Candida [2]; Inoue S. et al. 2012) [µg/mL] | tongue symptoms (Candida [1]; 1% (=10 mg/mL) solution, three times (50 μL at a time), JP 2013-40156 A)
O=CC=Cc1ccccc1 [cinnamaldehyde] | ameliorated the tongue symptoms | – | – | –
CC(C)=CCCC(C)=CC=O [citral] | – | at least 50 μg/mL | – | –
CCCCCCCCCC(=O)O [decanoic acid] | – | at least 3.13 μg/mL | ≥ 3.13 | ameliorated the tongue symptoms
C=CCc1ccc(O)c(OC)c1 [eugenol] | – | at least 200 μg/mL | – | –
CC(C)=CCC/C(C)=C/CO [geraniol] | – | at least 25 μg/mL | – | –
